Patent US20050014942A1, “Amide derivatives and drugs” (priority 2001, published 2005)
Counter-ions that a name gives are not always drawn.

Key:
[1] = Measurement of concentration of compound in rat plasma; assay type: in vivo; settings: oral 10 mg/kg; for concentration at 0.25 h: after 0.25 hours; for concentration at 1 h: after 1 hour; for concentration at 4 h: after 4 hours
Method: Each of the test compounds was dissolved or suspended in methyl cellulose and the resulting solution or suspension was orally administered to rats at a dosage of 10 mg/kg and blood was collected after 0.25 hours, 1 hour and 4 hours. The concentration in plasma in each of the compounds was measured by HPLC.

[2] = test system: collagen production induced by TGF-β (NHDF cells); test: Inhibitory effect on collagen production induced by TGF-β, [3H] proline uptake (NHDF cells); assay type: cell-based, human; settings: TGF-β1 3 ng/ml; for inhibition at 1 µM / inhibition at 3 µM / inhibition at 10 µM: Homo sapiens, NHDF
Method: As an index of collagen production, the uptake of [^3H] proline was measured.
Using a 96-well microplate, normal human skin derived fibroblast (NHDF, 10^4/well) or human embryonic lung fibroblast (TIG-3, 10^4/well) were cultured in a 10% fetal calf serum (FCS)-containing Dulbecco's modified Eagle medium (DMEM) for one day. After removing the culture supernatant, the cells were washed once with a 0.1% bovine serum albumin (BSA)-containing DMEM medium and then cultured in the 0.1% bovine serum albumin (BSA)-containing DMEM medium for one day. After adding each of the test compounds in each concentration (1, 3, 10 μM), the cells were cultured and, after adding TGF-β1 (3 ng/ml) and [^3H] proline (18.5 kBq/well), the cells were further cultured for additional one day.
After removing the culture supernatant, the cells were washed twice with a phosphate buffer solution (PBS) and dissolved with 0.3M NaOH and 1% sodium dodecylsulfate (SDS), and then each protein fraction was precipitated with trichloroacetic acid (TCA) After the precipitate was filtered through a glass filter (GF/B) and washed, the quantity of [^3H] proline on the glass filter was measured by a liquid scintillation counter. The number of cells was measured by a cell growth measuring kit (XTT, Roche) and the uptake of [^3H] proline was corrected by the number of cells. Inhibitory ratio was calculated as compared with the case where a difference between the uptake of [^3H] proline with or without TGF-β1.

Structure (SMILES)	inhibition at 1 µM ([2]; 1 μM) [%]	inhibition at 3 µM [2] [%]	also measured
Cn1c(-c2ccccc2)c(/C=C/C(=O)N2CCc3ccccc3C2)c2cccnc21 [Example 104, 2-[(2E)-3-(1-methyl-2-phenyl-1H-pyrrolo[2,3-b]pyridin-3-yl)prop-2-enoyl]-1,2,3,4-tetrahydroisoquinoline hydrochloride]			concentration at 0.25 h [1]: 14 to 19 ng/mL; concentration at 1 h [1]: 44 to 71 ng/mL; concentration at 4 h [1]: 25 to 32 ng/mL
COc1ccc(-c2c(/C=C/C(=O)N3CCc4cc(OC)c(OC)cc4C3)c3cccnc3n2C)cc1OC [Example 131, 2-{(2E)-3-[1-methyl-2-(3,4-dimethoxyphenyl)-1H-pyrrolo[2,3-b]pyridin-3-yl]prop-2-enoyl}-6,7-dimethoxy-1,2,3,4-tetrahydroisoquinoline hydrochloride]	96	141	
COc1cc2c(cc1OC)C(CC(=O)O)N(C(=O)/C=C/c1c(-c3ccccc3)n(C)c3ncccc13)CC2 (stereo not shown) [Example 124, {6,7-dimethoxy-2-[(2E)-3-(1-methyl-2-phenyl-1H-pyrrolo[2,3-b]pyridin-3-yl)prop-2-enoyl]-1,2,3,4-tetrahydroisoquinolin-1-yl}acetic acid]		108	Inhibitory effect on collagen production induced by TGF-β (% inhibition) ([2]; 1 μM): 21%
COc1cc2c(cc1OC)CN(C(=O)/C=C/c1c(-c3ccccc3)n(C)c3cccnc13)CC2 [Example 136, 2-[(2E)-3-(1-methyl-2-phenyl-1H-pyrrolo[3,2-b]pyridin-3-yl)prop-2-enoyl]-6,7-dimethoxy-1,2,3,4-tetrahydroisoquinoline hydrochloride]	66	111	
Cc1ncsc1CCNC(=O)c1cnc(N2CCN(C(=O)c3c(-c4ccccc4)n(C)c4ccc(Br)cc34)CC2)cn1 [Example 144, 5-{4-[(5-bromo-1-methyl-2-phenyl-1H-indol-3-yl)carbonyl]piperazin-1-yl}-N-[2-(4-methyl-1,3-thiazol-5-yl)ethyl]pyrazine-2-carboxamide hydrochloride]	78	85	
COc1cc2c(cc1OC)CN(C(=O)/C=C/c1c(-c3ccccc3)n(C)c3nccnc13)CC2 [Example 128, 2-[(2E)-3-(5-methyl-6-phenyl-5H-pyrrolo[2,3-b]pyrazin-7-yl)prop-2-enoyl]-6,7-dimethoxy-1,2,3,4-tetrahydroisoquinoline hydrochloride]	61	76	
Cc1ccc2c(c1)c(C(=O)N1CCN(c3cnc(C(=O)NCCc4ccc(O)cc4)cn3)CC1)c(-c1ccccc1)n2C [Example 145, 5-{4-[(1,5-dimethyl-2-phenyl-1H-indol-3-yl)carbonyl]piperazin-1-yl}-N-[2-(4-hydroxyphenyl)ethyl]pyrazine-2-carboxamide hydrochloride]	55	64	
CC1c2cc(O)c(O)cc2CCN1C(=O)/C=C/c1c(-c2ccc3c(c2)OCO3)n(C)c2ccccc12 (stereo not shown) [Example 114, 2-{(2E)-3-[1-methyl-2-(3,4-methylenedioxyphenyl)-1H-indol-3-yl]prop-2-enoyl}-1-methyl-6,7-dihydroxy-1,2,3,4-tetrahydroisoquinoline]		94	inhibition at 10 µM [2]: 165%
COc1cc2c(cc1OC)CN(C(=O)/C=C/c1c(-c3ccccc3)[nH]c3ncccc13)CC2 [Example 138, 6,7-dimethoxy-2-[(2E)-3-(2-phenyl-1H-pyrrolo[2,3-b]pyridin-3-yl)prop-2-enoyl]-1,2,3,4-tetrahydroisoquinoline dihydrochloride]	65	53	
CCOC(=O)C1CCCC1NC(=O)/C=C/c1c(-c2ccccc2)n(C)c2ncccc12 (stereo not shown) [Example 126, Ethyl 2-{N-[(2E)-3-(1-methyl-2-phenyl-1H-pyrrolo[2,3-b]pyridin-3-yl)prop-2-enoyl]amino}-1-cyclopentanecarboxylate]	29	86	
Cn1c(-c2ccccc2)c(/C=C/C(=O)N(CCc2cccs2)CC(=O)O)c2cccnc21 [Example 137, N-[(2E)-3-(1-methyl-2-phenyl-1H-pyrrolo[2,3-b]pyridin-3-yl)prop-2-enoyl]-N-[2-(2-thienyl)ethyl]aminoacetic acid]	38	72	
Cc1ncsc1CCNC(=O)c1cnc(N2CCN(C(=O)c3c(-c4ccccc4)n(C)c4ccc(F)cc34)CC2)cn1 [Example 147, 5-{4-[(5-fluoro-1-methyl-2-phenyl-1H-indol-3-yl)carbonyl]piperazin-1-yl}-N-[2-(4-methyl-1,3-thiazol-5-yl)ethyl]pyrazine-2-carboxamide dihydrochloride]	29	59	
Cn1c(-c2ccccc2)c(/C=C/C(=O)NCC2CN(Cc3ccc(F)cc3)CCO2)c2ccccc21 (stereo not shown) [Example 30, (2E)-N-{[4-(4-fluorobenzyl)morpholin-2-yl]methyl}-3-(1-methyl-2-phenyl-1H-indol-3-yl)acrylamide hydrochloride]	41	94	inhibition at 10 µM [2]: 148%
COCn1c(-c2ccccc2)c(/C=C/C(=O)N2CCc3cc(OC)c(OC)cc3C2)c2cccnc21 [Example 139, 2-[(2E)-3-(1-methoxymethyl-2-phenyl-1H-pyrrolo[2,3-b]pyridin-3-yl)prop-2-enoyl]-6,7-dimethoxy-1,2,3,4-tetrahydroisoquinoline hydrochloride]	37	54	
COc1ccc(-c2c(/C=C/C(=O)N(C)CCC(O)c3ccccc3)c3ccccc3n2C)cc1 (stereo not shown) [Example 119, (2E)-N-methyl-N-(3-hydroxy-3-phenylpropyl)-3-[1-methyl-2-(4-methoxyphenyl)-1H-indol-3-yl]acrylamide]		75	inhibition at 10 µM [2]: 153%
COc1cc2c(cc1OC)CN(C(=O)/C=C/c1c(-c3ccccc3)n(C)c3ncccc13)CC2 [Example 109, 2-[(2E)-3-(1-methyl-2-phenyl-1H-pyrrolo[2,3-b]pyridin-3-yl)prop-2-enoyl]-6,7-dimethoxy-1,2,3,4-tetrahydroisoquinoline hydrochloride]	50	76	inhibition at 10 µM [2]: 135%
COC(=O)c1ccc(-c2c(/C=C/C(=O)N3CCC(C(C)=O)(c4ccccc4)CC3)c3cc(C)ccc3n2C)cc1 [Example 141, 4-acetyl-1-{(2E)-3-[1,5-dimethyl-2-(4-carbomethoxyphenyl)-1H-indol-3-yl]prop-2-enoyl}-4-phenylpiperidine]	111	114	
Cc1ccc2c(c1)c(C(=O)N1CCN(c3ccc(-c4nnn(C)n4)cn3)CC1)c(-c1ccccc1)n2C [Example 26, 1,5-dimethyl-2-phenyl-3-[{4-[5-(2-methyl-2H-tetrazol-5-yl)pyridin-2-yl]piperazin-1-yl}carbonyl]-1H-indole]			concentration at 0.25 h [1]: 230 to 800 ng/mL; concentration at 1 h [1]: 130 to 300 ng/mL; concentration at 4 h [1]: 0 to 92 ng/mL
COc1ccc(N2CCN(C(=O)/C=C/c3c(-c4ccccc4)n(C)c4ncccc34)CC2)cc1 [Example 98, 1-[(2E)-3-(1-methyl-2-phenyl-1H-pyrrolo[2,3-b]pyridin-3-yl)prop-2-enoyl]-4-(4-methoxyphenyl)piperazine]	47	92	
CN(CCC(O)c1ccccc1)C(=O)/C=C/c1c(-c2ccc3c(c2)OCO3)n(C)c2ccccc12 (stereo not shown) [Example 112, (2E)-N-methyl-N-(3-hydroxy-3-phenylpropyl)-3-[1-methyl-2-(3,4-methylenedioxyphenyl)-1H-indol-3-yl]acrylamide]		73	inhibition at 10 µM [2]: 143%
Cn1c(-c2ccc3c(c2)OCO3)c(/C=C/C(=O)N[C@@H]2c3ccccc3C[C@@H]2O)c2ccccc21 [Example 113, (2E)-N-[(1R,2S)-2-hydroxy-2,3-dihydro-1H-inden-1-yl]-3-[1-methyl-2-(3,4-methylenedioxyphenyl)-1H-indol-3-yl]acrylamide]		88	inhibition at 10 µM [2]: 148%
COC(=O)c1ccc(-c2c(/C=C/C(=O)N(C)C3CCN(C)CC3)c3cc(C)ccc3n2C)cc1 [Example 143, (2E)-N-methyl-N-(1-methylpiperidin-4-yl)-3-[1,5-dimethyl-2-(4-carbomethoxyphenyl)-1H-indol-3-yl]acrylamide]	42	104	
COc1cc2c(cc1OC)CN(C(=O)/C=C/c1c(-c3ccccc3)n(C)c3cnccc13)CC2 [Example 130, 2-[(2E)-3-(1-methyl-2-phenyl-1H-pyrrolo[2,3-c]pyridin-3-yl)prop-2-enoyl]-6,7-dimethoxy-1,2,3,4-tetrahydroisoquinoline hydrochloride]	92	157	
COC(=O)CC1c2cc(OC)c(OC)cc2CCN1C(=O)/C=C/c1c(-c2ccccc2)n(C)c2ncccc12 (stereo not shown) [Example 133, Methyl {6,7-dimethoxy-2-[(2E)-3-(1-methyl-2-phenyl-1H-pyrrolo[2,3-b]pyridin-3-yl)prop-2-enoyl]-1,2,3,4-tetrahydroisoquinolin-1-yl}acetate hydrochloride]	57	104	
